Molecules are shown by their SMILES.

This assay deals with production of TNF by monocytes activated with bacterial lipopolysaccharide (LPS). Put plainly: Lipopolysaccharide-activated monocyte TNF production assay. Conditions: Homo sapiens; whole blood monocyte assay (LPS induced TNF release). The assay is classed as cell-based. In a few lines:
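Adherent human PBMC-derived monocytes preincubated 60 min with nine two-fold compound dilutions, then stimulated with E. coli K532 LPS (30 ng/mL in the added medium) for 4 h at 37 °C. Supernatant TNF measured by sandwich ELISA; IC50 is the compound concentration halving TNF production, from second-order polynomial fits.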
With `COc1ncc(-c2nncc3cc(-c4cc(C(=O)NC5CC5)ccc4C)ccc23)c(OC)n1` [Example 234, N-cyclopropyl-3-[1-(2,4-dimethoxypyrimidin-5-yl)phthalazin-6-yl]-4-methylbenzamide], the IC50 was at most 5 µM. `Cc1ccc(C(=O)NC2CC2)cc1-c1ccc2c(N3CCC[C@@H]3C)nncc2c1` [Example 295, N-cyclopropyl-4-methyl-3-{1-[(2S)-2-methylpyrrolidin-1-yl]phthalazin-6-yl}benzamide] came in with an IC50 of at most 5 µM.

Compound `Cc1ccc(C(=O)NC2CC2)cc1-c1ccc2c(-c3ccc(Cl)cc3C(F)(F)F)nncc2c1` [Example 210, 3-{1-[4-chloro-2-(trifluoromethyl)phenyl]phthalazin-6-yl}-N-cyclopropyl-4-methylbenzamide] came in with a 50% inhibitory concentration (IC50) of at most 5 µM. Compound `Cc1ccc(C(=O)NC2CC2)cc1-c1ccc2c(N3CCc4c(O)n[nH]c4C3)nncc2c1` [Example 103, N-cyclopropyl-3-(1-(3-hydroxy-4,5-dihydro-1H-pyrazolo[3,4-c]pyridin-6(7H)-yl)phthalazin-6-yl)-4-methylbenzamide] displayed a half-maximal inhibitory concentration (IC50) of at most 5 µM. `Cc1ccc(C(=O)NC2CC2)cc1-c1ccc2c(N3CCCC3C)nncc2c1` (stereo not drawn) [Example 105, N-cyclopropyl-4-methyl-3-(1-(2-methylpyrrolidin-1-yl)phthalazin-6-yl)benzamide]: the IC50 was at most 5 µM.

`CNc1noc2c(-c3ccc4c(N[C@@H](C)COC)nncc4c3)c(C)ccc12` [Example 399, N-[(1S)-2-methoxy-1-methylethyl]-6-[6-methyl-3-(methylamino)-1,2-benzisoxazol-7-yl]phthalazin-1-amine]: the IC50 is at most 5 µM. As for `CS(=O)(=O)c1ccc(-c2nncc3cc(Oc4ccc(F)cc4)ccc23)cc1` [Example 335, 6-(4-fluorophenoxy)-1-[4-(methylsulfonyl)phenyl]phthalazine], the concentration for half-maximal inhibition (IC50) is at most 5 µM. Take `Cc1ccc(C(N)=O)cc1-c1ccc2c(OC3CCCN(C)C3)nncc2c1` (stereo not drawn) [Example 316, 4-methyl-3-{1-[(1-methylpiperidin-3-yl)oxy]phthalazin-6-yl}benzamide]: the IC50 was at most 5 µM. Compound `Cc1ccc(C(N)=O)cc1-c1ccc2c(N3C[C@@H](C)NC[C@@H]3C)nncc2c1` [Example 122, 3-{1-[(2S,5R)-2,5-dimethylpiperazin-1-yl]phthalazin-6-yl}-4-methylbenzamide] registered an IC50 of at most 5 µM. For `Cc1ccc(-c2nncc3cc(-c4cc(C(=O)NC5CC5)ccc4C)ccc23)c(Cl)n1` [Example 212, 3-[1-(2-chloro-6-methylpyridin-3-yl)phthalazin-6-yl]-N-cyclopropyl-4-methylbenzamide] the value was at most 5 µM; for `CC[C@@H](C)Nc1nncc2cc(-c3cc(C(=O)NC4CC4)ccc3C)ccc12` [Example 314, N-cyclopropyl-4-methyl-3-(1-{[(1R)-1-methylpropyl]amino}phthalazin-6-yl)benzamide], at most 5 µM.

The compound `Cc1ccc(C(=O)NC2CC2)cc1-c1ccc2c(-c3cccnc3C)nncc2c1` [Example 241, N-cyclopropyl-4-methyl-3-[1-(2-methylpyridin-3-yl)phthalazin-6-yl]benzamide] showed a half-inhibitory concentration (IC50) of at most 5 µM.

`Cc1ccc(C(N)=O)cc1-c1ccc2c(N3CCn4c(nnc4C(F)(F)F)C3)nncc2c1` [Example 294, 4-methyl-3-{1-[3-(trifluoromethyl)-5,6-dihydro[1,2,4]triazolo[4,3-a]pyrazin-7(8H)-yl]phthalazin-6-yl}benzamide] came in with an IC50 of at most 5 µM.

`Cc1ccc(C(=O)NC2CC2)cc1-c1ccc2c(C(=O)NC(C)C)nncc2c1` [Example 70, 6-{5-[(Cyclopropylamino)carbonyl]-2-methylphenyl}-N-isopropylphthalazine-1-carboxamide] came in with an IC50 of at most 5 µM. In turn, `Cc1ccc(C(=O)NC2CC2)cc1-c1ccc2c(-c3cccs3)nncc2c1` [Example 244, N-cyclopropyl-4-methyl-3-(1-thien-2-ylphthalazin-6-yl)benzamide] registered an IC50 of at most 5 µM. The same measure for `COc1ncc(-c2nncc3cc(-c4cc(C(N)=O)ccc4C)ccc23)c(OC)n1` [Example 225, 3-[1-(2,4-dimethoxypyrimidin-5-yl)phthalazin-6-yl]-4-methylbenzamide]: at most 5 µM. For `Cc1ccc(C(=O)NC2CC2)cc1-c1ccc2c(NC3CCCC3)nncc2c1` [Example 325, 3-[1-(cyclopentylamino)phthalazin-6-yl]-N-cyclopropyl-4-methylbenzamide], the IC50 was at most 5 µM. The same measure for `CC(=O)N1CCN(c2nncc3cc(-c4cc(C(=O)N(C(C)=O)C5CC5)ccc4C)ccc23)CC1` [Example 66, N-acetyl-3-(1-(4-acetylpiperazin-1-yl)phthalazin-6-yl)-N-cyclopropyl-4-methylbenzamide]: at most 5 µM; for `COc1cc(F)ccc1-c1nncc2cc(-c3cc(C(=O)NC4CC4)ccc3C)ccc12` [Example 262, N-cyclopropyl-3-[1-(4-fluoro-2-methoxyphenyl)phthalazin-6-yl]-4-methylbenzamide]: at most 5 µM. Compound `Cc1ccc(C(=O)NC2CCC2)cc1-c1ccc2c(N(C)C)nncc2c1` [Example 283, N-cyclobutyl-3-[1-(dimethylamino)phthalazin-6-yl]-4-methylbenzamide] showed an IC50 of at most 5 µM. Take `Cc1ccc(C(=O)NC2CC2)cc1-c1ccc2c(N3CCCOCC3)nncc2c1` [Example 266, N-cyclopropyl-4-methyl-3-[1-(1,4-oxazepan-4-yl)phthalazin-6-yl]benzamide]: the IC50 is at most 5 µM.

In the case of `CNC(=O)c1ccc(C)c(-c2ccc3c(NC(C)C)nncc3c2)c1` [Example 10, 3-(1-(isopropylamino)phthalazin-6-yl)-N,4-dimethylbenzamide], the half-maximal inhibitory concentration (IC50) was at most 5 µM. The same measure for `Cc1ccc(C(=O)NC2CC2)cc1-c1ccc2c(-c3ccc(S(N)(=O)=O)cc3C)nncc2c1` [Example 218, 3-{1-[4-(aminosulfonyl)-2-methylphenyl]phthalazin-6-yl}-N-cyclopropyl-4-methylbenzamide]: at most 5 µM. In the case of `Cc1ccc(C(=O)NC2CC2)cc1-c1ccc2c(N3CCNCC3)nncc2c1` [Example 165, N-cyclopropyl-4-methyl-3-(1-piperazin-1-ylphthalazin-6-yl)benzamide], the IC50 is at most 5 µM. The same measure for `Cc1ccccc1-c1nncc2cc(Oc3ccc(F)cc3F)ccc12` [Example 345, 6-(2,4-difluorophenoxy)-1-(2-methylphenyl)phthalazine]: at most 5 µM. Regarding `Cc1ccc(C(=O)NC2CC2)cc1-c1ccc2c(N3C[C@@H](C)OC[C@H]3C)nncc2c1` [Example 174, N-cyclopropyl-3-{1-[(2R,5R)-2,5-dimethylmorpholin-4-yl]phthalazin-6-yl}-4-methylbenzamide], the IC50 was at most 5 µM.

Take `NC(=O)c1ccc(F)c(-c2ccc3c(N4CCOCC4)nncc3c2)c1` [Example 177, 4-fluoro-3-(1-morpholin-4-ylphthalazin-6-yl)benzamide]: the 50% inhibitory concentration (IC50) is at most 5 µM. For `Cc1ccc(C(N)=O)cc1-c1ccc2c(OC3CCCCC3)nncc2c1` [Example 311, 3-[1-(cyclohexyloxy)phthalazin-6-yl]-4-methylbenzamide], the IC50 was at most 5 µM. For `Cc1ccc(C(=O)NC2CC2)cc1-c1ccc2c(N3CCC4(CC3)OCCO4)nncc2c1` [Example 167, N-cyclopropyl-3-[1-(1,4-dioxa-8-azaspiro[4.5]dec-8-yl)phthalazin-6-yl]-4-methylbenzamide] the value was at most 5 µM; for `Cc1ccc(C(N)=O)cc1-c1ccc2c(NC(C)C)nncc2c1` [Example 179, 3-[1-(isopropylamino)phthalazin-6-yl]-4-methylbenzamide], at most 5 µM; for `COc1ccc(-c2nncc3cc(-c4cc(C(=O)NC5CC5)ccc4C)ccc23)c(C)n1` [Example 207, N-cyclopropyl-3-[1-(6-methoxy-2-methylpyridin-3-yl)phthalazin-6-yl]-4-methylbenzamide], at most 5 µM. For `COc1ccccc1-c1nncc2cc(Oc3ccc(C)cc3)ccc12` [Example 334, 1-(2-methoxyphenyl)-6-(4-methylphenoxy)phthalazine] the value was at most 5 µM; for `Cc1ccc(C(=O)NC2CC2)cc1-c1ccc2c(NC(C)C)nncc2c1` [Example 172, N-cyclopropyl-3-[1-(isopropylamino)phthalazin-6-yl]-4-methylbenzamide], at most 5 µM; for `Cc1ccc(C(=O)NC2CC2)cc1-c1ccc2c(N3CCO[C@@H](CO)C3)nncc2c1` [Example 160, N-cyclopropyl-3-{1-[(2R)-2-(hydroxymethyl)morpholin-4-yl]phthalazin-6-yl}-4-methylbenzamide], at most 5 µM. In turn, `CCNC(=O)c1ccc(C)c(-c2ccc3c(CC(C)C)nncc3c2)c1` [Example 361, N-ethyl-3-(1-isobutylphthalazin-6-yl)-4-methylbenzamide] had an IC50 of at most 5 µM. With `Cc1ccc(C(=O)NC2CC2)cc1-c1ccc2c(C#N)nncc2c1` [Example 79, 3-(1-cyanophthalazin-6-yl)-N-cyclopropyl-4-methylbenzamide], the 50% inhibitory concentration (IC50) is at most 5 µM. Regarding `Cc1cc(F)ccc1Oc1nncc2cc(-c3cc(C(N)=O)ccc3C)ccc12` [Example 320, 3-[1-(4-fluoro-2-methylphenoxy)phthalazin-6-yl]-4-methylbenzamide], the half-inhibitory concentration (IC50) was at most 5 µM. `Cc1ccc(C(=O)NC2CC2)cc1-c1ccc2c(N3C(C)CC[C@@H]3C(=O)NC(C)C)nncc2c1` (stereo partly drawn) [Example 68, (2R)-1-(6-(5-(Cyclopropylcarbamoyl)-2-methylphenyl)phthalazin-1-yl)-N-isopropyl-5-methylpyrrolidine-2-carboxamide] registered a half-maximal inhibitory concentration (IC50) of at most 5 µM.

With `CCNC(=O)N1CCN(c2nncc3cc(-c4cc(C(=O)NC5CC5)ccc4C)ccc23)CC1` [Example 129, 4-(6-{5-[(cyclopropylamino)carbonyl]-2-methylphenyl}phthalazin-1-yl)-N-ethylpiperazine-1-carboxamide], the IC50 was at most 5 µM.

(Values after patent publication US7759337B2, “Phthalazine compounds and methods of use” (Amgen Inc., priority 2005, dated 2010).)
